Results on 30 molecules are retold here after US7674795B2, “Fluorene derivatives, composition containing said derivatives and the use thereof” (Aventis Pharma SA, priority 2005, dated 2010).

Usually IC50 stands for the concentration needed to halve the response being measured.

SMILES strings stand for the structures. Structures can show the parent of a compound that is named as a salt.

Chain of Hsp82 (P02829 whole entry): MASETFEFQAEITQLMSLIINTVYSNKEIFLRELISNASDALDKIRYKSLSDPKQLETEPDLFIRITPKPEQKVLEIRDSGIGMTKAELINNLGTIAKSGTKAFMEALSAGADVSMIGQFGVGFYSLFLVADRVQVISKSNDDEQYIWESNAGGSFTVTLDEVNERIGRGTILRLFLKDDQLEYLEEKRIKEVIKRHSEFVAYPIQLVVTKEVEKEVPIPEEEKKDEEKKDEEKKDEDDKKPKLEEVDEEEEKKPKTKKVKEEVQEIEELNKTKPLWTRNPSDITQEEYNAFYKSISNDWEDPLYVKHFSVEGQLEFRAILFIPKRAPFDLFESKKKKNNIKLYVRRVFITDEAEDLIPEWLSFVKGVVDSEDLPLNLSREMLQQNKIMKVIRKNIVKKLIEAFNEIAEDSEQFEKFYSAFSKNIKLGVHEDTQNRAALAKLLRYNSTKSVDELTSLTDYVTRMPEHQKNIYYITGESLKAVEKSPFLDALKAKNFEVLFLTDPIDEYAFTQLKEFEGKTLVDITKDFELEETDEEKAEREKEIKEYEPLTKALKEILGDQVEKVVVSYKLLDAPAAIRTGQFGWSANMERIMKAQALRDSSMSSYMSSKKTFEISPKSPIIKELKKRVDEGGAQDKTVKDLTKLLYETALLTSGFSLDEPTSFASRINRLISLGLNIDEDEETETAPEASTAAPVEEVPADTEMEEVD

The assay addresses Hsp82 (Saccharomyces cerevisiae, UniProt P02829). Description: PK/LDH enzyme coupling test of the ATPase activity of Hsp82 (NADH decrease at 340 nm). It is filed as biochemical. As to conditions: 1 μM Hsp82, 250 μM ATP, 37° C., pyruvate kinase/lactate dehydrogenase coupling, read-out: Hsp82 ATPase IC50. The text has this: The formation of ADP due to the ATPase activity of Hsp82 was utilized for developing another method of evaluating the enzymatic activity of this enzyme by application of an enzyme coupling system employing pyruvate kinase (PK) and lactate dehydrogenase (LDH). In this spectrophotometric method of the kinetic type, the PK catalyses the formation of ATP and of pyruvate starting from phosphoenol-pyruvate (PEP) and the ADP produced by HSP82. The pyruvate that formed, an LDH substrate, is then converted to lactate in the presence of NADH. In this case, the decrease in the concentration of NADH, measured by the decrease in absorbance at wavelength of 340 nm, is proportional to the concentration of ADP produced by HSP82. […] This mixture is preincubated at 37° C. for 30 min before adding 3.77 units of LDH and 3.77 units of PK. The reaction is started by adding the product to be evaluated, in variable concentrations, and of Hsp82, at a concentration of 1 μM. The enzymatic activity of Hsp82 is then measured continuously in a microplate reader at 37° C., at wavelength of 340 nm. The initial reaction rate is found by measuring the slope of the tangent at the origin of the recorded curve. The enzymatic activity is expressed as μM of ADP formed per minute. The effect of the various products tested is expressed as percentage of inhibition of ATPase activity, using the following codes: • A: […]
For the molecule `O=C(NC1c2ccccc2-c2c(-c3nc4ccncc4[nH]3)cccc21)c1cccc2c1C=CCO2` (racemic) [Example 38, [4-(3H-imidazo[4,5-c]pyridin-2-yl)-9H-fluoren-9(R,S)-yl]amide trifluoroacetate of 2H-1-benzopyran-5-carboxylic acid], the IC50 is 1 to 10 µM.
To `O=C(NC1c2ccccc2-c2c(-c3nc4ccncc4[nH]3)cccc21)c1cc[nH]n1` (racemic) [Example 39, [4-(3H-imidazo[4,5-c]pyridin-2-yl)-9H-fluoren-9(R,S)-yl]amide trifluoroacetate of 1H-pyrazole-3-carboxylic acid] belongs 1 to 10 µM; to `NC(=O)CCC(=O)NC1c2ccccc2-c2c(-c3nc4cnccc4[nH]3)cccc21` (racemic) [Example 40, N-[4-(3H-imidazo[4,5-c]pyridin-2-yl)-9H-fluoren-9(R,S)-yl]-succinamide trifluoroacetate], 1 to 10 µM; to `O=C(NC1c2ccccc2-c2c(-c3nc4ccncc4[nH]3)cccc21)c1ccc2[nH]nnc2c1` (racemic) [Example 41, [4-(3H-imidazo[4,5-c]pyridin-2-yl)-9H-fluoren-9(R,S)-yl]amide trifluoroacetate of 1H-benzotriazole-5-carboxylic acid], under 1 µM.
Then `O=C(Cc1n[nH]c(S)n1)NC1c2ccccc2-c2c(-c3nc4ccncc4[nH]3)cccc21` (racemic) [Example 42, N-[4-(3H-imidazo[4,5-c]pyridin-2-yl)-9H-fluoren-9(R,S)-yl]-2-(5-mercapto-4H-1,2,4-triazol-3-yl)-acetamide trifluoroacetate], with 1 to 10 µM; and `O=C(NC1c2ccccc2-c2c(-c3nc4ccncc4[nH]3)cccc21)c1ccc2[nH]c(=O)[nH]c2c1` (racemic) [Example 43, [4-(3H-imidazo[4,5-c]pyridin-2-yl)-9H-fluoren-9(R,S)-yl]amide of 2-oxo-2,3-dihydro-1H-benzimidazole-5-carboxylic acid], with 10 to 100 µM; and `O=C(NC1c2ccccc2-c2c(-c3nc4ccncc4[nH]3)cccc21)c1cc(Cl)cc2[nH]cnc12` (racemic) [Example 44, [4-(3H-imidazo[4,5-c]pyridin-2-yl)-9H-fluoren-9(R,S)-yl]amide of 6-chloro-1H-benzimidazole-4-carboxylic acid], with 1 to 10 µM.
As to `O=C(NC1c2ccccc2-c2c(-c3nc4ccncc4[nH]3)cccc21)c1ccc2[nH]ncc2c1` (racemic) [Example 45, [4-(3H-imidazo[4,5-c]pyridin-2-yl)-9H-fluoren-9(R,S)-yl]amide of 1H-indazole-5-carboxylic acid], the IC50 lay within 1 to 10 µM.
On to `O=C(NC1c2ccccc2-c2c(-c3nc4ccncc4[nH]3)cccc21)c1ccc2cc[nH]c2c1` (racemic) [Example 46, [4-(3H-imidazo[4,5-c]pyridin-2-yl)-9H-fluoren-9(R,S)-yl]amide of 1H-indole-6-carboxylic acid], for which the IC50 lay in the range of 1 to 10 µM.
To `O=C(NC1c2ccccc2-c2c(-c3nc4ccncc4[nH]3)cccc21)c1ccncc1` (racemic) [Example 47, N-[4-(3H-imidazo[4,5-c]pyridin-2-yl)-9H-fluoren-9(R,S)-yl]-isonicotinamide] belongs under 1 µM.
To `O=C(NC1c2ccccc2-c2c(-c3nc4ccncc4[nH]3)cccc21)c1cccnc1` (racemic) [Example 48, N-[4-(3H-imidazo[4,5-c]pyridin-2-yl)-9H-fluoren-9(R,S)-yl]-nicotinamide] belongs 1 to 10 µM; to `CC(=O)CCC(=O)NC1c2ccccc2-c2c(-c3nc4ccncc4[nH]3)cccc21` (racemic) [Example 49, hydrochloride of [4-(3H-imidazo[4,5-c]pyridin-2-yl)-9H-fluoren-9(R,S)-yl]amide of 4-oxo-pentanoic acid], 10 to 100 µM; to `O=C(NC1c2ccccc2-c2c(-c3nc4ccncc4[nH]3)cccc21)c1cccc(O)c1` (racemic) [Example 50, hydrochloride of 3-hydroxy-N-[4-(3H-imidazo[4,5-c]pyridin-2-yl)-9H-fluoren-9(R,S)-yl]-benzamide], 1 to 10 µM.
For `O=C(NC1c2ccccc2-c2c(-c3nc4ccncc4[nH]3)cccc21)N1CCOCC1` (racemic) [Example 51, [4-(3H-imidazo[4,5-c]pyridin-2-yl)-9H-fluoren-9(R,S)-yl]amide trifluoroacetate of morpholine-4-carboxylic acid], the IC50 was 1 to 10 µM.
With `CN(C)c1cccc2c(S(=O)(=O)NC3c4ccccc4-c4c(-c5nc6ccncc6[nH]5)cccc43)cccc12` (racemic) [Example 52, [4-(3H-imidazo[4,5-c]pyridin-2-yl)-9H-fluoren-9(R,S)-yl]amide trifluoroacetate of 5-dimethylamino-naphthalene-1-sulphonic acid], the IC50 was in the range of 10 to 100 µM.
To `O=C(NC1c2ccccc2-c2c(-c3nc4cnccc4[nH]3)cccc21)c1cccc2[nH]ccc12` (racemic) [Example 53, [4-(3H-imidazo[4,5-c]pyridin-2-yl)-9H-fluoren-9(R,S)-yl]amide of 1H-indole-4-carboxylic acid] belongs 1 to 10 µM; to `Nc1ccc2c(C(=O)NC3c4ccccc4-c4c(-c5nc6cnccc6[nH]5)cccc43)cccc2c1` (racemic) [Example 54, [4-(3H-imidazo[4,5-c]pyridin-2-yl)-9H-fluoren-9(R,S)-yl]amide of 6-amino-naphthalene-1-carboxylic acid], 1 to 10 µM.
Then `S=C(NC1c2ccccc2-c2c(-c3nc4cnccc4[nH]3)cccc21)c1cccc2ncccc12` (racemic) [Example 55, [4-(3H-imidazo[4,5-c]pyridin-2-yl)-9H-fluoren-9(R,S)-yl]amide trifluoroacetate of quinoline-5-carbothioic acid], with under 1 µM; and `O=C(NC1c2ccccc2-c2c(-c3nc4cnccc4[nH]3)cccc21)c1ccc[n+]([O-])c1` (racemic) [Example 56, N-[4-(3H-imidazo[4,5-c]pyridin-2-yl)-9H-fluoren-9(R,S)-yl]-1-oxynicotinamide], with 1 to 10 µM.
To `NC(=O)NCC(=O)NC1c2ccccc2-c2c(-c3nc4cnccc4[nH]3)cccc21` (racemic) [Example 58, N-[4-(3H-imidazo[4,5-c]pyridin-2-yl)-9H-fluoren-9(R,S)-yl]-2-ureido-acetamide] belongs 1 to 10 µM.
Take `O=C1CCc2c1cccc2C(=O)NC1c2ccccc2-c2c(-c3nc4cnccc4[nH]3)cccc21` (racemic) [Example 60, [4-(3H-imidazo[4,5-c]pyridin-2-yl)-9H-fluoren-9(R,S)-yl]amide of 1-oxo-indan-4-carboxylic acid]: the IC50 lay in the range of 1 to 10 µM.
As for `O=C(NC1c2ccccc2-c2c(-c3nc4cnccc4[nH]3)cccc21)c1nccc2ccccc12` (racemic) [Example 64, [4-(3H-imidazo[4,5-c]pyridin-2-yl)-9H-fluoren-9(R,S)-yl]amide of isoquinoline-1-carboxylic acid], the IC50 is 10 to 100 µM.
To `CC(=O)Nc1cc(C(=O)NC2c3ccccc3-c3c(-c4nc5cnccc5[nH]4)cccc32)ccn1` (racemic) [Example 66, 2-acetylamino-N-[4-(3H-imidazo[4,5-c]pyridin-2-yl)-9H-fluoren-9(R,S)-yl]-isonicotinamide] belongs under 1 µM; to `O=C(NC1c2ccccc2-c2c(-c3nc4cnccc4[nH]3)cccc21)c1ccnc2ccccc12` (racemic) [Example 67, [4-(3H-imidazo[4,5-c]pyridin-2-yl)-9H-fluoren-9(R,S)-yl]amide of quinoline-4-carboxylic acid], under 1 µM; to `ON=C1c2ccccc2-c2c1cccc2-c1nc2ccccc2[nH]1` (racemic) [Example 68, 4-(1H-benzimidazol-2-yl)-fluoren-9-one oxime (Z,E)], 10 to 100 µM.
To `ON=C1c2ccccc2-c2c1cccc2-c1nc2ccc(F)cc2[nH]1` (racemic) [Example 70, 4-(6-fluoro-1H-benzimidazol-2-yl)-fluoren-9-one oxime (Z,E)] belongs 1 to 10 µM.
To `CC(=O)NC1c2ccccc2-c2c(-c3nc4ccncc4[nH]3)cccc21` (racemic) [Example 72, N-[4-(3H-imidazo[4,5-c]pyridin-2-yl)-9H-fluoren-9(R,S)-yl]-acetamide] belongs 1 to 10 µM.
For the molecule `Nc1cc(C(=O)NC2c3ccccc3-c3c(-c4nc5ccncc5[nH]4)cccc32)ccn1` (racemic) [Example 73, 2-amino-N-[4-(3H-imidazo[4,5-c]pyridin-2-yl)-9H-fluoren-9(R,S)-yl]-isonicotinamide], the IC50 was under 1 µM.
Then `O=C(NCc1ccco1)NC1c2ccccc2-c2c(-c3nc4ccncc4[nH]3)cccc21` (racemic) [Example 74, 1-furan-2-ylmethyl-3-[4-(3H-imidazo[4,5-c]pyridin-2-yl)-9H-fluoren-9(R,S)-yl]-urea], with 10 to 100 µM.
In the case of `O=C(NCc1ccc(F)cc1)NC1c2ccccc2-c2c(-c3nc4ccncc4[nH]3)cccc21` (racemic) [Example 75, 1-(4-fluorobenzyl)-3-[4-(3H-imidazo[4,5-c]pyridin-2-yl)-9H-fluoren-9(R,S)-yl]-urea], the IC50 was 10 to 100 µM.
